Here are results for two compounds from patent US10123985B2, “Therapeutic strategies for treating mitochondrial disorders” (Whitehead Institute for Biomedical Research, priority 2015, dated 2018).

“Also recorded” adds a separate entry of the source.

The subject of experiment [1] is Jurkat cells. The experiment is described as follows: Metabolite profiling (LC/MS) of Jurkat cells. It is filed as cell-based, human. Conditions: pyruvate 1 mM. The method, then:
LC/MS analyses were conducted on a QExactive benchtop orbitrap mass spectrometer equipped with an Ion Max source and a HESI II probe, which was coupled to a Dionex UltiMate 3000 UPLC system (Thermo Fisher Scientific, San Jose, Calif.). External mass calibration was performed using the standard calibration mixture every 7 days.
Polar metabolites were extracted using 1 ml of ice-cold 80% methanol with 10 ng/ml valine-d8 as an internal standard. After a 10 min vortex and centrifugation for 10 min at 4° C. at 10,000 g, samples were dried under nitrogen gas. Dried samples were stored at −80° C. and then resuspended in 100 μL water; 1 μl of each sample was injected onto a ZIC-pHILIC 2.1×150 mm (5 μm particle size) column (EMD Millipore). Buffer A was 20 mM ammonium carbonate, 0.1% ammonium hydroxide; buffer B was acetonitrile. The chromatographic gradient was run at a flow rate of 0.150 ml/min as follows: 0-20 min.: linear gradient from 80% to 20% B; 20-20.5 min.: linear gradient from 20% to 80% B; 20.5-28 min.: hold at 80% B. The mass spectrometer was operated in fullscan, polarity switching mode with the spray voltage set to 3.0 kV, the heated capillary held at 275° C., and the HESI probe held at 350° C. The sheath gas flow was set to 40 units, the auxiliary gas flow was set to 15 units, and the sweep gas flow was set to 1 unit. The MS data acquisition was performed in a range of 70-1000 m/z, with the resolution set at 70,000, the AGC target at 106, and the maximum injection time at 80 msec. Relative quantitation of polar metabolites was performed with XCalibur QuanBrowser 2.2 (Thermo Fisher Scientific) using a 5 ppm mass tolerance and referencing an in-house library of chemical standards.

In experiment [2] the test system is lactate dehydrogenase (LDH). Briefly: Lactate dehydrogenase assay (disappearance of NADH absorbance). It is filed as biochemical. Conditions: 1 mM α-ketobutyrate, 180 μM NADH, absorbance at 340 nm. How it is done: Immediately prior to the start of the assay 100 μL of a reaction buffer containing 50 mM HEPES-KOH pH 7.5, 20 mM KCl, 2 mM MgCl2, 1 mM DTT, 180 μM NADH, 1 mM α-ketobutyrate (where applicable) was combined with LDH (where applicable) in 96-well plates. Lactate dehydrogenase activity was assayed by monitoring disappearance of NADH absorbance at 340 nm over time.

Experiment [3] concerns 143B cells. Briefly: Mitochondrial oxygen consumption (Seahorse XF24), cells treated with respiration inhibitors. To be noted: ETC inhibitors plus AKB. It is filed as cell-based. The method, then: Oxygen consumption rates were determined on a Seahorse Bioscience Extracellular Flux Analyzer (XF24). Cells were plated in Seahorse Bioscience 24 well plates at 6E4 cells per well in 100 μL complete DMEM, allowed to attach for 1 hour, and 500 μl complete DMEM was added before overnight incubation. The following day cells were washed 2 times in assay media: DMEM without phenol red or pyruvate containing 0.5% dialyzed FBS and 0.1 mg/mL uridine at pH 7.4 and incubated in 500 μL of the same media for the assay.

For experiment [4], the system named is 143B cells. The experiment is described as follows: Measurement of NAD+/NADH (NAD/NADH Glo) in 143B cells with respiration inhibitors. It is filed as cell-based. Conditions: 143B cells, ETC inhibitors plus AKB, 6 hours. The method, then: NAD^+/NADH measurements were done using a modified version of manufacturer instructions of NAD/NADH Glo Assay (Promega). Cells were plated and treated as for proliferation assays and cell extracts were taken 6 hours after treatment. For extraction, cells were quickly washed 3 times in ice cold PBS, extracted in 100 μL ice cold lysis buffer (1% Dodecyltrimethylammonium bromide (DTAB) in 0.2 N NaOH diluted 1:1 with PBS), and immediately frozen at −80° C. To measure NADH, 20 μL of sample was moved to PCR tubes and incubated at 75° C. for 30 min, where the basic conditions will selectively degrade NAD^+. To measure NAD^+, 20 μL of the samples was moved to PCR tubes containing 20 μL lysis buffer and 20 μL 0.4 N HCl and incubated at 60° C. for 15 min, where acidic conditions will degrade NADH. Following incubations, samples were allowed to equilibrate to room temperature and then quenched by neutralizing with 20 μL 0.25 M Tris in 0.2 N HCl (NADH) or 20 μL 0.5 M Tris base (NAD^+). Manufacturer instructions were followed thereafter to measure NAD^+/NADH.

The subject of experiment [5] is 143B CytB cells. The experiment is described as follows: Amino acid and TCA cycle metabolite GC-MS analysis, 143B CytB cells. It is filed as cell-based. To be noted: AKB withdrawal. How it is done: 143B and 143B CytB cells were seeded at 400,000 cells/well in 6 well dishes overnight. The following day, cells were washed 2 times in PBS and media was changed to proliferation assay media with or without the indicated treatments. After 8 hours, polar metabolites were extracted using 80% methanol in water with 1 μg norvaline per sample. Soluble content was then dried under nitrogen gas. Polar samples were derivatized and measured as detailed in (Lewis). Relative metabolite abundances were determined by integrating ion peak area (Metran) and normalized to norvaline internal extraction standard.

For experiment [6], the system named is 143B CytB cells. The experiment is described as follows: Cell cycle distribution by propidium iodide flow cytometry. It is filed as cell-based. To be noted: 143B CytB cells without AKB compared with AKB, 78 hours. How it is done:
143B CytB cells were incubated in untreated media or media containing AKB or 100 μM adenine for 78 hours before being washed with PBS, trypsinized, pelleted, and resuspended in 500 μL PBS. Cells were fixed by adding 4.5 mL 70% ethanol and incubated at 4° C. overnight. The following day cells were pelleted and resuspended in 1 mL PBS+0.1% (v/v) Triton X-100. RNase A and then propidium iodide (PI) were added to 0.2 mg/mL and 20 μg/mL, respectively. Samples were incubated at 37° C. for 15 minutes and filtered into a flow cytometry tube. DNA content was measured by flow cytometry (BD FACS Canto II) and analyzed (FACS Diva Software).
On the technique in general: Flow cytometry measures light scatter and fluorescence of single cells or particles in a stream.

Take `CC(=O)C(=O)O` [pyruvate]: the “Aspartate synthesis with pyruvate” value in experiment [1] (MDH1-null Jurkat cells treated with ETC inhibitors) is listed as “did not stimulate aspartate synthesis; also recorded: depends on MDH1”. For the same compound, the “Aspartate levels with pyruvate” value in experiment [1] (phenformin-treated (10 μM, 24 hours) GOT1-null Jurkat cells) was “no effect on aspartate”; in experiment [1] (phenformin-treated (10 μM, 24 hours) wild type Jurkat cells), “increases cellular aspartate levels in a GOT1-dependent manner; also recorded: restored aspartate levels to normal in phenformin-treated wild type cells”.

On to `CCC(=O)C(=O)O` [AKB, α-ketobutyrate], for which, in experiment [2], the “Regeneration of NAD+ from NADH by LDH” value is reported as “capable of regenerating NAD^+ from NADH”. For the same compound, the O2 consumption entry in experiment [3] is on record as “no effect on O2 consumption”. Further, the “Cellular NAD+/NADH ratio” value in experiment [4] is reported as “restored NAD^+/NADH”. In experiment [5], the “Aspartate intracellular pool size” value was “also decreased”, the “Glutamate intracellular pool size” value is on record as “only modestly decreased” and the “TCA cycle metabolite pool sizes” value is given as “drastically lowered”. In addition, the “Cell cycle distribution (DNA content)” value in experiment [6] was “do not obviously arrest at a specific stage of the cell cycle”.
